This note sets out measurements from patent US20210107942A1, “TISSUE PROTECTIVE PEPTIDES AND PEPTIDE ANALOGS FOR PREVENTING AND TREATING DISEASES AND DISORDERS ASSOCIATED WITH TISSUE DAMAGE” (Araim Pharmaceuticals, Inc., priority 2013, published 2021).

In one experiment the test system is sciatic nerve injury. Put plainly: Sciatic nerve injury assay (static sciatic index from toe spread). The class given is in vivo, Sprague-Dawley rats. The note with it: rat, 50 mcg/kg into the caudal vein after nerve stretch injury, toe splaying over next four days, vs PBS; FIG. 1. Here is the method:
RYLLEAKEAENITTG (SECS ID NO:1) was tested for tissue protective activity using a sciatic nerve injury assay, Sprague-Dawley rats (250-300 grams) (six per group, including control) were anesthetized using isoflurane. The rat was then placed on a homeothermic blanket to ensure that the core temperature of the rat was maintained at 35-37° C. during the operation. Core temperature was monitored via a rectal probe. The right sciatic nerve of the anesthetized rat was exposed at mid thigh through a quadriceps muscle dissection; a 2 cm incision with a 15 blade scalpel was made through the skin parallel and over the quadriceps muscle and the quadriceps muscle was cut to expose the sciatic nerve using a pair of dissecting scissors. […]
Over the next four days the rear toe splaying of the rats was determined by placing the rat in an acrylic tube with a diameter of 30 cm on the scanning surface of a digital scanner. […] From the scans, the Toe Spread (the distance between the ball of the first toe and the ball of the fifth toe) and the Intermediate Toe Spread (the distance between the ball of the second toe and the ball of the fourth toe were measured. The static sciatic index (SSI) was then computed in accordance with S. Erbayraktar et al., 2003, Proc. Natl. Acad Sci USA 100, 6741-6746 (hereby incorporated by reference in its entirety) and statistical analysis performed.

For experiment [1], the system named is histamine induced wheal (edema by intradermal histamine injection). Put plainly: Histamine induced wheal formation. It is filed as in vivo, Sprague-Dawley rats. The settings on record: rat, 30 mcg/kg intravenously shortly after intradermal histamine, area at fifteen minutes, vs placebo; FIG. 2. Here is the method:
Under isofiurane anesthesia, 12 Sprague-Dawley rats' abdomens were shaved and depilated. Each rat was then injected intravenously (via internal jugular) with a dilute solution or Evans Blue (30 mg/ml in saline, 1 mg/kg bw). After 5 minutes, 6 small doses of histamine (histamine diphosphate, 20 microliters administered intradermally) in a rectangular pattern on each rat's abdomen. After fifteen minutes, when the wheal reaches its maximum size the wheal is photographed and the blister area was determined by digital planimetry. To test the efficacy of a peptide, RYLLEAKEAENITTG (SEQ ID NO:1) or placebo, was administered to the rats intravenously shortly after the histamine injection, at a dose of 30 mcg/kg.

The subject of experiment [2] is cancer cachexia, Yoshida hepatoma AH-130 cells. In words: Cachexia model (Yoshida hepatoma AH-130 inoculated rats). It is filed as in vivo, Male Wistar Han rats. The note with it: rat, daily 0.17 or 1.7 μg/kg/d, vs saline placebo. Here is the method: Male Wistar Han rats aged 8 weeks with an approximate weight of 200 g were inoculated intraperitoneally with 10^8 Yoshida hepatoma. AH-130 cells. Body weight and body composition were assessed before tumor inoculation and on the day of sacrifice. Quality of life indicators (spontaneous activity, food and water intake) were measured on day 0 and on day 10/11. Tumor cells were counted at the last day of the study. Rats were treated daily with either (1) low dose (0.17 μg/kg/d) RYLLEAKEAENITTG (SEQ ID NO:1), (2) high dose (1.7 μg/kg/d) RYLLEAKEAENITTG (SEQ ID NO:1), or (3) or normal saline (placebo) (n=22). Body composition of animals was analyzed using an EchoMRI-700 (Echo Medical Systems, Houston, Tex., USA). The analysis of the body structures was based on Nuclear Magnetic Resonance. Spontaneous activity was measured by an infrared scanner over 24 hours using Supermex activity monitoring system (Muromachi Kikai Co., LTD., Tokyo, Japan).

Turning to “RYLLEAKEAENITTG (peptide that have tissue protective activity) [tissue protective peptide of 15 amino acids derived from erythropoietin, made by Fmoc solid phase synthesis]”, the “sciatic nerve injury (static sciatic index, SSI)” value with sciatic nerve injury is recorded as “reduces sciatic nerve injury”. Moreover, the wheal area entry in experiment [1] is “significantly reduced”. Moreover, in experiment [2] (EchoMRI, FIG. 3C), the “loss of lean mass” value was “reduced loss of lean mass”. Further, the “physical activity (spontaneous activity)” value in experiment [2] (infrared scanner over 24 hours, FIG. 3D) is “increased physical activity”. Also, the weight loss result in experiment [2] (FIG. 3A) was “reduced weight loss”. Also, the epididymal fat result in experiment [2] (FIG. 3B) is “preserved epididymal fat”.
